Values quoted from earlier work in patent US20220202720A1, “SUSTAINED RELEASE C[…] AND METHOD OF PREPARATION THEREOF” (PHARMATHEN S.A., priority 2019, published 2022).

Biological target: recombinant μ-opioid receptor (Homo sapiens, UniProt P35372)
Sequence (P35372 whole entry, species assumed): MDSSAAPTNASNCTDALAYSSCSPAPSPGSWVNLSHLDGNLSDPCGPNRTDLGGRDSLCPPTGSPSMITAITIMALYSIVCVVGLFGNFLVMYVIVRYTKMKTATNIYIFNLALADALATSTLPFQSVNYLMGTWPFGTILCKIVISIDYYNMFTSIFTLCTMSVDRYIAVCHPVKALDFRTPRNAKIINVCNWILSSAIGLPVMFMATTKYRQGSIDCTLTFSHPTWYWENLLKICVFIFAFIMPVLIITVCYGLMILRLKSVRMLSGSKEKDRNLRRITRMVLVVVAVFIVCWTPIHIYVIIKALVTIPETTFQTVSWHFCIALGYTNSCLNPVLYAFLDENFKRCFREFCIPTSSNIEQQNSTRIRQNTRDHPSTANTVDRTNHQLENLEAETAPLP

## CC[C@@H](c1cccc(O)c1)[C@@H](C)CN(C)C [Tapentadol]
  reduced affinity to recombinant μ-opioid receptor compared to morphine: 18 times
